Reference: patent publication US8192962B2, “Processes for detecting toxic substances” (Daikin Industries, Ltd., priority 2001, dated 2012)

Test system: Stress protein genes
Assay: DNA chip mRNA expression in yeast, stress protein genes (Table 6)
Assay type: cell-based, Saccharomyces cerevisiae S288C
Procedure: Yeast (Saccharomyces cerevisiae S288C (α SUC2mal mel gap2 CUP1)) were incubated at 25° C. on YPD medium (yeast extract 1%, polypepton 2%, glucose 2%). One of toxic chemical substances was added to the cells at logarithmic growth phase, and the cells were further incubated for two hours. Cells were cultured without any chemical substance in the same condition, and were used as control. Concentrations of the chemical substances were defined to inhibit the growth of the yeast but not lead to death.
After completion of the incubation, the culture was centrifuged to collect the cells. To the cells, sodium acetate buffer (50 mM sodium acetate, 10 mM EDTA, 1% SDS) was added, and the mixture was shaken at 65° C. for five minutes, followed by returning to room temperature, and obtaining the supernatant, of which the procedures were repeated two times. To the supernatant, ½ amount of a solution of phenol/chloroform was added, and the mixture was centrifuged to give a supernatant, which was added with an equal amount of chloroform, and the mixture was centrifuged to give a supernatant. To the supernatant, an equal amount of isopropanol containing 0.3 M sodium acetate was added, and the mixture was allowed to stand at room temperature for 30 minutes, after which the mixture was centrifuged to give a sediment of the whole RNAs. Seventy % ethanol was added to the sediment, and the mixture was again centrifuged to give a sediment, which was then dried and dissolved in water. mRNA was isolated from the whole RNAs as followings. In view of the fact that a poly A chain is attached to the 3′ terminus of mRNA, a polynucleotide having a poly T structure which was immobilized on the surface of latex beads was used to trap the mRNA, and then the mRNA was washed and eluted with spine column (Oligotex-dT30<Super>mRNA Purification Kit, Takara). Reverse transcription of the mRNA was conducted with a reverse transcriptase (Super Script II Reverse Transcriptase; catalogue No. 18064-014, GibcoBRL) using fluorescence-labeled nucleotides to give cDNAs that were introduced with Cy3-dUTP or Cy5-dUTP during the reverse transcription.
The labeled cDNAs were dissolved in TE buffer (10mM Tris-HCl/1 mM EDTA, pH8.0), and the solution was dropped on the DNA chip containing the whole genes of yeast (DNA Chip Research Inc. Japan) so that the cDNAs were hybridized on the DNA chip at 65° C. for over 12 hours. The fluoresces intensity of the DNA chip was read with a scanner, and the ratio relative to the fluorescence intensity resulting from the absence of chemical substance was estimated as the following, which is shown in Tables 1 to 9: […]

With CCCCCCCCCCCCc1ccc(S(=O)(=O)[O-])cc1.[Na+] [(17), sodium dodecylbenzosulfonate] the “The level of expressed mRNA in the presence of chemical substance/The level of expressed mRNA in the absence of chemical substance” value (yeast gene YAL005C) was 0.8, the “The level of expressed mRNA in the presence of chemical substance/The level of expressed mRNA in the absence of chemical substance” value (yeast gene YAL015C) was 1.1 and the “The level of expressed mRNA in the presence of chemical substance/The level of expressed mRNA in the absence of chemical substance” value (yeast gene YBL075C) was 1.2. The “The level of expressed mRNA in the presence of chemical substance/The level of expressed mRNA in the absence of chemical substance” value (yeast gene YBL093C) was 1.4, the “The level of expressed mRNA in the presence of chemical substance/The level of expressed mRNA in the absence of chemical substance” value (yeast gene YBR044C) was 0.9 and the “The level of expressed mRNA in the presence of chemical substance/The level of expressed mRNA in the absence of chemical substance” value (yeast gene YBR054W) was 0.7. For the same compound, the “The level of expressed mRNA in the presence of chemical substance/The level of expressed mRNA in the absence of chemical substance” value (yeast gene YBR067C) was 0.5, the “The level of expressed mRNA in the presence of chemical substance/The level of expressed mRNA in the absence of chemical substance” value (yeast gene YBR072W) was 1.8 and the “The level of expressed mRNA in the presence of chemical substance/The level of expressed mRNA in the absence of chemical substance” value (yeast gene YBR126C) was 1.5. The “The level of expressed mRNA in the presence of chemical substance/The level of expressed mRNA in the absence of chemical substance” value (yeast gene YBR169C) was 1.3, the “The level of expressed mRNA in the presence of chemical substance/The level of expressed mRNA in the absence of chemical substance” value (yeast gene YCL035C) was 2.6 and the “The level of expressed mRNA in the presence of chemical substance/The level of expressed mRNA in the absence of chemical substance” value (yeast gene YCR021C) was 0.7. For the same compound, the “The level of expressed mRNA in the presence of chemical substance/The level of expressed mRNA in the absence of chemical substance” value (yeast gene YCR060W) was 1.2, the “The level of expressed mRNA in the presence of chemical substance/The level of expressed mRNA in the absence of chemical substance” value (yeast gene YCR083W) was 1.3 and the “The level of expressed mRNA in the presence of chemical substance/The level of expressed mRNA in the absence of chemical substance” value (yeast gene YDL022W) was 1.0. The “The level of expressed mRNA in the presence of chemical substance/The level of expressed mRNA in the absence of chemical substance” value (yeast gene YDL025C) was 1.0, the “The level of expressed mRNA in the presence of chemical substance/The level of expressed mRNA in the absence of chemical substance” value (yeast gene YDR033W) was 0.7 and the “The level of expressed mRNA in the presence of chemical substance/The level of expressed mRNA in the absence of chemical substance” value (yeast gene YDR077W) was 1.4. The “The level of expressed mRNA in the presence of chemical substance/The level of expressed mRNA in the absence of chemical substance” value (yeast gene YDR098C) was 1.0, the “The level of expressed mRNA in the presence of chemical substance/The level of expressed mRNA in the absence of chemical substance” value (yeast gene YDR155C) was 1.2 and the “The level of expressed mRNA in the presence of chemical substance/The level of expressed mRNA in the absence of chemical substance” value (yeast gene YDR258C) was 1.3. The “The level of expressed mRNA in the presence of chemical substance/The level of expressed mRNA in the absence of chemical substance” value (yeast gene YDR293C) was 1.4, the “The level of expressed mRNA in the presence of chemical substance/The level of expressed mRNA in the absence of chemical substance” value (yeast gene YDR436W) was 0.9 and the “The level of expressed mRNA in the presence of chemical substance/The level of expressed mRNA in the absence of chemical substance” value (yeast gene YDR513W) was 1.3. For the same compound, the “The level of expressed mRNA in the presence of chemical substance/The level of expressed mRNA in the absence of chemical substance” value (yeast gene YDR519W) was 1.8, the “The level of expressed mRNA in the presence of chemical substance/The level of expressed mRNA in the absence of chemical substance” value (yeast gene YEL030W) was 0.9 and the “The level of expressed mRNA in the presence of chemical substance/The level of expressed mRNA in the absence of chemical substance” value (yeast gene YEL039C) was 0.7. For the same compound, the “The level of expressed mRNA in the presence of chemical substance/The level of expressed mRNA in the absence of chemical substance” value (yeast gene YER042W) was 0.7, the “The level of expressed mRNA in the presence of chemical substance/The level of expressed mRNA in the absence of chemical substance” value (yeast gene YER057C) was 1.1 and the “The level of expressed mRNA in the presence of chemical substance/The level of expressed mRNA in the absence of chemical substance” value (yeast gene YER103W) was 1.4. The “The level of expressed mRNA in the presence of chemical substance/The level of expressed mRNA in the absence of chemical substance” value (yeast gene YER125W) was 1.0, the “The level of expressed mRNA in the presence of chemical substance/The level of expressed mRNA in the absence of chemical substance” value (yeast gene YFL014W) was 1.5 and the “The level of expressed mRNA in the presence of chemical substance/The level of expressed mRNA in the absence of chemical substance” value (yeast gene YFL016C) was 1.2. For the same compound, the “The level of expressed mRNA in the presence of chemical substance/The level of expressed mRNA in the absence of chemical substance” value (yeast gene YFL020C) was 1.5, the “The level of expressed mRNA in the presence of chemical substance/The level of expressed mRNA in the absence of chemical substance” value (yeast gene YFR052W) was 1.2 and the “The level of expressed mRNA in the presence of chemical substance/The level of expressed mRNA in the absence of chemical substance” value (yeast gene YGL073W) was 2.5. For the same compound, the “The level of expressed mRNA in the presence of chemical substance/The level of expressed mRNA in the absence of chemical substance” value (yeast gene YGL115W) was 0.8, the “The level of expressed mRNA in the presence of chemical substance/The level of expressed mRNA in the absence of chemical substance” value (yeast gene YGL181W) was 1.0 and the “The level of expressed mRNA in the presence of chemical substance/The level of expressed mRNA in the absence of chemical substance” value (yeast gene YGR088W) was 0.9. For the same compound, the “The level of expressed mRNA in the presence of chemical substance/The level of expressed mRNA in the absence of chemical substance” value (yeast gene YHL028W) was 1.6, the “The level of expressed mRNA in the presence of chemical substance/The level of expressed mRNA in the absence of chemical substance” value (yeast gene YHL046C) was 0.9 and the “The level of expressed mRNA in the presence of chemical substance/The level of expressed mRNA in the absence of chemical substance” value (yeast gene YHR030C) was 2.0. For the same compound, the “The level of expressed mRNA in the presence of chemical substance/The level of expressed mRNA in the absence of chemical substance” value (yeast gene YHR057C) was 1.6, the “The level of expressed mRNA in the presence of chemical substance/The level of expressed mRNA in the absence of chemical substance” value (yeast gene YHR104W) was 1.9 and the “The level of expressed mRNA in the presence of chemical substance/The level of expressed mRNA in the absence of chemical substance” value (yeast gene YIL011W) was 0.8.
